Measured values from PubChem BioAssay (NCI).
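Tested at 5 concentrations; 48 h exposure; 96-well plates; endpoints linearly interpolated, else capped at highest concentration. TGI denotes the concentration required for complete inhibition of growth.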

How the values were obtained:
Assay in all cases: NCI tumour cell line growth inhibition, 48 h
[1] = tested on: 786-0 renal
[2] = tested on: A498 renal
[3] = tested on: A549 NSCLC
[4] = tested on: ACHN renal
[5] = tested on: CAKI-1 renal
[6] = tested on: CCRF-CEM leukemia
[7] = tested on: COLO 205 colon
[8] = tested on: DU-145 prostate
[9] = tested on: EKVX NSCLC
[10] = tested on: HCC-2998 colon
[11] = tested on: HCT-116 colon
[12] = tested on: HCT-15 colon
[13] = tested on: HL-60(TB) leukemia
[14] = tested on: HOP-62 NSCLC
[15] = tested on: HOP-92 NSCLC
[16] = tested on: HS 578T breast
[17] = tested on: HT29 colon
[18] = tested on: IGROV1 ovarian
[19] = tested on: K-562 leukemia
[20] = tested on: KM12 colon
[21] = tested on: LOX IMVI melanoma
[22] = tested on: M14 melanoma
[23] = tested on: MALME-3M melanoma
[24] = tested on: MCF7 breast
[25] = tested on: MDA-MB-231 breast
[26] = tested on: MDA-MB-435
[27] = tested on: MDA-N
[28] = tested on: MOLT-4 leukemia
[29] = tested on: NCI-H226 lung
[30] = tested on: NCI-H23 lung
[31] = tested on: NCI-H460 lung
[32] = tested on: NCI-H522 lung
[33] = tested on: NCI/ADR-RES ovarian
[34] = tested on: OVCAR-3 ovarian
[35] = tested on: OVCAR-4 ovarian
[36] = tested on: OVCAR-5 ovarian
[37] = tested on: OVCAR-8 ovarian
[38] = tested on: PC-3 prostate
[39] = tested on: RPMI-8226 leukemia
[40] = tested on: RXF 393 renal
[41] = tested on: SF-268 CNS
[42] = tested on: SF-295 CNS
[43] = tested on: SF-539 CNS
[44] = tested on: SK-MEL-2 melanoma
[45] = tested on: SK-MEL-28 melanoma
[46] = tested on: SK-MEL-5 melanoma
[47] = tested on: SK-OV-3 ovarian
[48] = tested on: SN12C renal
[49] = tested on: SNB-19 CNS
[50] = tested on: SNB-75 CNS
[51] = tested on: SR leukemia
[52] = tested on: SW-620 colon
[53] = tested on: T-47D breast
[54] = tested on: U251 CNS
[55] = tested on: UACC-257 melanoma
[56] = tested on: UACC-62 melanoma
[57] = tested on: UO-31 renal
[58] = tested on: BT-549 breast
[59] = tested on: TK-10 renal

N#C/C(=C/n1c(=S)[nH]c2ccccc21)C(N)=O
TGI [1]: > 100 µM
TGI [2]: > 100 µM
TGI [3]: > 100 µM
TGI [4]: > 100 µM
TGI [5]: > 100 µM
TGI [6]: > 100 µM
TGI [7]: > 100 µM
TGI [8]: > 100 µM
TGI [9]: > 100 µM
TGI [10]: > 100 µM
TGI [11]: > 100 µM
TGI [12]: > 100 µM
TGI [13]: 30.4 µM
TGI [14]: > 100 µM
TGI [15]: > 100 µM
TGI [16]: > 100 µM
TGI [17]: > 100 µM
TGI [18]: > 100 µM
TGI [19]: > 100 µM
TGI [20]: > 100 µM
TGI [21]: > 100 µM
TGI [22]: > 100 µM
TGI [23]: > 100 µM
TGI [24]: > 100 µM
TGI [25]: > 100 µM
TGI [26]: > 100 µM
TGI [27]: > 100 µM
TGI [28]: > 100 µM
TGI [29]: > 100 µM
TGI [30]: > 100 µM
TGI [31]: > 100 µM
TGI [32]: > 100 µM
TGI [33]: > 100 µM
TGI [34]: > 100 µM
TGI [35]: > 100 µM
TGI [36]: > 100 µM
TGI [37]: > 100 µM
TGI [38]: > 100 µM
TGI [39]: > 100 µM
TGI [40]: > 100 µM
TGI [41]: > 100 µM
TGI [42]: > 100 µM
TGI [43]: > 100 µM
TGI [44]: > 100 µM
TGI [45]: > 100 µM
TGI [46]: > 100 µM
TGI [47]: > 100 µM
TGI [48]: > 100 µM
TGI [49]: > 100 µM
TGI [50]: > 100 µM
TGI [51]: > 100 µM
TGI [52]: > 100 µM
TGI [53]: > 100 µM
TGI [54]: > 100 µM
TGI [55]: > 100 µM
TGI [56]: > 100 µM
TGI [57]: > 100 µM

O=C(NNS(=O)(=O)c1ccc(Br)cc1)c1ccc(Cl)cc1NC(=O)C12CC3CC(CC(C3)C1)C2
TGI [1]: 40 µM
TGI [2]: 29 µM
TGI [3]: 21.4 µM
TGI [4]: 29.7 µM
TGI [58]: 34.8 µM
TGI [5]: 56.6 µM
TGI [6]: 76.5 µM
TGI [7]: 24.5 µM
TGI [8]: 33.4 µM
TGI [9]: 27.3 µM
TGI [11]: > 100 µM
TGI [12]: 45.4 µM
TGI [13]: 67.9 µM
TGI [14]: 47.8 µM
TGI [15]: 27.3 µM
TGI [16]: 40.7 µM
TGI [17]: 27.2 µM
TGI [18]: 24.7 µM
TGI [19]: 24.4 µM
TGI [20]: 85.7 µM
TGI [21]: 28.4 µM
TGI [22]: 33.6 µM
TGI [23]: 35.3 µM
TGI [24]: 34.1 µM
TGI [26]: 25.8 µM
TGI [27]: 32.2 µM
TGI [28]: 73.9 µM
TGI [29]: 35.6 µM
TGI [30]: 28.2 µM
TGI [31]: 23.4 µM
TGI [32]: 25.1 µM
TGI [33]: 32.5 µM
TGI [34]: 26.5 µM
TGI [35]: 23.8 µM
TGI [36]: 34.3 µM
TGI [37]: 31.9 µM
TGI [38]: 38.6 µM
TGI [39]: 24 µM
TGI [40]: 31.6 µM
TGI [41]: 24.9 µM
TGI [42]: 29.3 µM
TGI [43]: 32.3 µM
TGI [44]: 25.3 µM
TGI [46]: 23.2 µM
TGI [47]: 30.3 µM
TGI [48]: 36.1 µM
TGI [49]: 28.7 µM
TGI [50]: 28 µM
TGI [51]: 35.5 µM
TGI [52]: 41.4 µM
TGI [53]: > 100 µM
TGI [59]: 33.2 µM
TGI [54]: 22.7 µM
TGI [55]: 26.9 µM
TGI [56]: 25.6 µM
TGI [57]: 24.2 µM

C[C@]12C(=O)C=CCC1=CC[C@@H]1[C@@H]2[C@H]2CC3(O)C(=O)O[C@@]4(C)[C@H]5C[C@@]6(C)[C@@H]7[C@@]2(O)[C@]1(OC[C@H]6C(=O)O5)O[C@]734 (stereo partly specified)
TGI [1]: > 100 µM
TGI [2]: > 100 µM
TGI [3]: > 100 µM
TGI [4]: > 100 µM
TGI [5]: > 100 µM
TGI [6]: > 100 µM
TGI [7]: > 100 µM
TGI [8]: > 100 µM
TGI [9]: > 100 µM
TGI [11]: > 100 µM
TGI [12]: > 100 µM
TGI [13]: > 100 µM
TGI [15]: > 100 µM
TGI [16]: > 100 µM
TGI [17]: > 100 µM
TGI [18]: > 100 µM
TGI [19]: > 100 µM
TGI [20]: > 100 µM
TGI [21]: 75.5 µM
TGI [22]: > 100 µM
TGI [23]: > 100 µM
TGI [24]: > 100 µM
TGI [25]: > 100 µM
TGI [26]: > 100 µM
TGI [27]: > 100 µM
TGI [28]: 90.3 µM
TGI [30]: 54.6 µM
TGI [31]: > 100 µM
TGI [32]: 46.2 µM
TGI [33]: > 100 µM
TGI [35]: > 100 µM
TGI [36]: > 100 µM
TGI [37]: > 100 µM
TGI [38]: > 100 µM
TGI [39]: > 100 µM
TGI [40]: 55.7 µM
TGI [41]: > 100 µM
TGI [42]: > 100 µM
TGI [43]: 42.9 µM
TGI [44]: > 100 µM
TGI [45]: > 100 µM
TGI [46]: > 100 µM
TGI [48]: > 100 µM
TGI [49]: > 100 µM
TGI [50]: > 100 µM
TGI [51]: 75.2 µM
TGI [52]: > 100 µM
TGI [59]: > 100 µM
TGI [54]: > 100 µM
TGI [55]: > 100 µM
TGI [56]: > 100 µM
TGI [57]: > 100 µM

O=C1CCCCC/C1=C\c1cccc([N+](=O)[O-])c1
TGI [1]: > 100 µM
TGI [2]: > 100 µM
TGI [3]: > 100 µM
TGI [4]: > 100 µM
TGI [58]: 72.8 µM
TGI [5]: > 100 µM
TGI [6]: 44.2 µM
TGI [7]: > 100 µM
TGI [8]: > 100 µM
TGI [9]: > 100 µM
TGI [10]: 44 µM
TGI [11]: 53 µM
TGI [13]: 57 µM
TGI [14]: > 100 µM
TGI [17]: > 100 µM
TGI [18]: 50.4 µM
TGI [19]: > 100 µM
TGI [20]: 56.1 µM
TGI [22]: > 100 µM
TGI [23]: 72.4 µM
TGI [24]: > 100 µM
TGI [25]: 56.4 µM
TGI [26]: > 100 µM
TGI [27]: > 100 µM
TGI [28]: 83.5 µM
TGI [31]: 67.9 µM
TGI [33]: 95.5 µM
TGI [34]: > 100 µM
TGI [36]: > 100 µM
TGI [37]: > 100 µM
TGI [38]: > 100 µM
TGI [39]: 78.1 µM
TGI [40]: 93.1 µM
TGI [41]: 40.6 µM
TGI [42]: 50.4 µM
TGI [43]: 48.7 µM
TGI [44]: > 100 µM
TGI [45]: > 100 µM
TGI [46]: 40.4 µM
TGI [47]: > 100 µM
TGI [48]: > 100 µM
TGI [49]: > 100 µM
TGI [50]: > 100 µM
TGI [51]: 39.9 µM
TGI [52]: > 100 µM
TGI [53]: > 100 µM
TGI [59]: 97.2 µM
TGI [54]: > 100 µM
TGI [55]: 54.8 µM
TGI [56]: 67.6 µM
TGI [57]: 80.1 µM
